# Measurements: US11286247B2, “Acryloyl-containing nuclear transport regulators and uses thereof” (WIGEN BIOMEDICINE TECHNOLOGY (SHANGHAI) CO., LTD., priority 2019, dated 2022)
# Read-outs that look alike come from different tables or passages of the source.
# How the values were obtained:
# [1] = molecular target: T1, CRM1 (Homo sapiens, UniProt O14980); assay: Rev-GFP nuclear export assay; type: cell-based; conditions: U2OS cells expressing Rev-GFP, 1 hour incubation, nuclear retention of Rev-GFP
# T1 construct: The nuclear localization of Rev protein depends on CRM1; endogenous in cells; host or cells: U2OS cells stably or transiently expressing Rev-GFP (reporter cargo)
# Method: The Rev protein from HIV contains nuclear export sequence (NES) at its C terminus and nuclear localization sequence (NLS) at its N-terminus. The nuclear localization of Rev protein depends on CRM1. U2OS cells expressing Rev protein fused with GFP (Rev-GFP) were plated in black 384 plates with clear bottom one day prior to treatment. Compounds were serially diluted 2-fold from 40 μM with DMEM in 384 plates, and then incubated with U2OS cells for an hour. Cells were fixed with 3.7% formaldehyde afterwards and nuclei were stained with Hoechst33258. The nuclear retention of Rev-GFP was examined, and IC50 was calculated.
# [2] = tested on: BxPC-3 cells (pancreatic cancer); assay: Cancer cell proliferation assay, BxPC-3; type: cell-based; conditions: for IC50: Homo sapiens
# Method: (§1) BxPC-3 cells (pancreatic cancer) and MDA-MB-231 cells (breast cancer cells) were harvested from exponential phase cultures and seeded in 96-well plates at a cell density of 2×10^4 per well. After overnight attachment, compounds including positive controls were applied to cells at five concentrations and incubated for three days. During the last four hours of incubation, 20 μL of 5 mg/mL […] was added followed by the further addition of 100 μL DMSO. The plates were subsequently shook for 10 minutes to dissolve insoluble purple formazan. Absorbance (A) at a wavelength of 570 nm was quantified. Percentage of inhibition was used for the calculation of IC50 based on the bliss method.
# [3] = tested on: MDA-MB-231 cells (breast cancer cells); assay: Cancer cell proliferation assay, MDA-MB-231; type: cell-based; conditions: Homo sapiens
# Method: as §1
# [4] = In vivo pharmacokinetic analysis; conditions: ICR, mouse; mice, 5 mg/kg, oral gavage in 0.5% CMC, plasma
# Method: A group of 9 ICR mice received 5 mg/kg of compound in 0.5% CMC by oral gavage. Blood was taken before treatment and at 5 min, 30 min, 1, 2, 4, 8, 12 and 24 h after treatment. 80 μL of whole blood was sampled (n=3 at each time point) via retro-orbital bleeds or cardiac puncture. The blood sample was collected into EDTA tubes and plasma were obtained by centrifugation at 1500-1600 rpm for 10 min at 4° C. After centrifugation, plasma sample was transferred to a new tube and stored at −60 to −90° C. for future analysis. Plasma concentration of (compounds was quantified by a method based on liquid chromatography coupled to tandem mass-spectrometric detections (LC/MS/MS). Noncompartmental pharmacokinetics parameters were calculated.
# [5] = Aqueous solubility assay; type: physicochemical; conditions: thermodynamic from solid, HPLC
# Method: 10-30 mg of compounds were dissolved in water and an HCl solution at pH1.2 respectively, and then were continuously shook for three days, followed by centrifugation at 10000 rpm/minute for five minutes. A 2 mL aliquot of supernatant was removed and diluted to 50 mL to prepare a sample solution. A control solution was prepared by dissolving 2.5 mg compounds in methanol, which was subsequently diluted with water to a final volume of 50 mL. 20 μL of control and sample solutions were injected into HPLC. The area under the curve (A) of the sample solution was compared with that of the control solution and used for determination of the concentration. Solubility was calculated by the formula below. Solubility (mg/mL)=c(control)*25*A(sample)/A(control) • C (control): concentration of the control solution • A (sample): area under the curve of the sample solution • A (control): area under the curve of the control solution
# [6] = tested on: BxPC-3 xenografts; assay: Anti-tumor growth efficacy in pancreatic tumor BxPC3 nude mice xenograft model; type: in vivo; conditions: oral: KPT-330 and 38 10 mg/kg tiw, 79 2.5 mg/kg tiw, 62 10 mg/kg qd; for Tumor volume D1 / average body weight D1: D1, first day of drug treatment; for T/C: TRTV/CRTV X 100
# Method: BxPC-3 cells were cultured in 1640 medium containing 10% FBS at 37° C. and 5% CO2, 8×10^6 BxPc-3 cells were implanted subcutaneously into the left armpit of 40 nude mice. […] Compound 62 was administered orally everyday (qd) at 10 mg/kg, whereas KPT330 and compound 38 were given three times a week (tiw, Monday, Wednesday and Friday) at 10 mg/kg by oral gavage, and compound 79 were given three times a week (tiw, Monday, Wednesday and Friday) at 2.5 mg/kg by oral gavage. Tumor volume and body weight were measured every other day. Mice were sacrificed on day 21, and tumor and terminal body weight were recorded. The relative tumor volume, percent treatment/control values and tumor growth inhibition were calculated and statistics was performed.
# [7] = BXPC-3, 72 h, three days incubation, absorbance 570 nm, read-out: IC50 (μM) BxPC-3
# [8] = BXPC-3, anti-proliferative assay, read-out: IC50 in BxPC-3 cells
# [9] = MDA-MB-231, 72 h, three days incubation, absorbance 570 nm, read-out: IC50 (μM) MDA-MB-231
# [10] = MDA-MB-231, anti-proliferative assay, read-out: IC50 in MDA-MB-231 cells
# [11] = simulated gastric fluid, HCl solution of pH 1.2, shaken three days, read-out: Solubility, HCl solution of pH 1.2
# [12] = water, shaken three days, read-out: Solubility, Water
# T1 sequence (O14980 whole entry): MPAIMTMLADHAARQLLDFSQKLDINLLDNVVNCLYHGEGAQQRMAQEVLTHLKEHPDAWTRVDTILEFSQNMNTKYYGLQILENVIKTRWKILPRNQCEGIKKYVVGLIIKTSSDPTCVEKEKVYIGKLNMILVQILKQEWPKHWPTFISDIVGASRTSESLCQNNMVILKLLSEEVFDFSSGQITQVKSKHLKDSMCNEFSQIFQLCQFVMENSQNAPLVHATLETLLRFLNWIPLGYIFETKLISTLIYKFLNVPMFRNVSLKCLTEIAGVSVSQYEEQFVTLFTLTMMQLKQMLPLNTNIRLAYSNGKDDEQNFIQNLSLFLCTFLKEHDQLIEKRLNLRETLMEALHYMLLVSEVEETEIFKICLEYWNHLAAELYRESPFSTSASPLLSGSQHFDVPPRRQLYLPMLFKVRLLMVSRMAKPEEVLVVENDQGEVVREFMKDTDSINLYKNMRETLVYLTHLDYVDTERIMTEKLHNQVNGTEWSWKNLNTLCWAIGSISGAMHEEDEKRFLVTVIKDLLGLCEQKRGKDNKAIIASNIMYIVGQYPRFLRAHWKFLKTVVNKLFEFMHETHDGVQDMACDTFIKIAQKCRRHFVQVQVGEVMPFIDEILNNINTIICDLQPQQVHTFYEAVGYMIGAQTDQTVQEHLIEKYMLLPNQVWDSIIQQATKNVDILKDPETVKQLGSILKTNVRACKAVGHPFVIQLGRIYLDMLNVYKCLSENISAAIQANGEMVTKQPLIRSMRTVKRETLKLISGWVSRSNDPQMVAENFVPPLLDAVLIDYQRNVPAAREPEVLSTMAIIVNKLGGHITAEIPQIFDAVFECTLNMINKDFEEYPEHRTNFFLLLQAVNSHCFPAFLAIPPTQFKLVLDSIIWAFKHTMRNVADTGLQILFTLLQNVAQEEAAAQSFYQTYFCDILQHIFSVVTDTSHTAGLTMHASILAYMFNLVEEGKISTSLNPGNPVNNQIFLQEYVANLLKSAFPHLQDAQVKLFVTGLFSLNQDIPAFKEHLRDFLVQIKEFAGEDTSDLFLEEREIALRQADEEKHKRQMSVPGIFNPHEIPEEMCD
Structure (SMILES),IC50 [1] [µM],"IC50 [2, 7] [µM]","IC50 [2, 8] [µM]","folds of enhancement of activity in the anti-proliferative assay ([2]; in comparison to KPT330, BxPC-3 and MDA-MB-231 cells) [folds]","IC50 [3, 9] [µM]","IC50 [3, 10] [µM]",AUC(0-t) [4] [ng·h/mL],Cmax [4] [ng/mL],MRT [4] [h],Tmax [4] [h],half-life [4] [h],"solubility at 3 days [5, 11] [µg/mL]","solubility at 3 days [5, 12] [µg/mL]",Tumor volume D1 [6] [mm^3],average body weight D1 [6] [g],TGI (tumor growth inhibition) ([6]; D21) [%],Tumor volume D21 ([6]; D21) [mm^3],average body weight D21 ([6]; D21) [g],"RTV (relative tumor volume, Vt/V0) ([6]; D21, *P < 0.05 vs. vehicle group)",T/C [6] [%]
"COC1=CC(=O)N(NC(=O)/C=C\n2cnc(-c3cc(C(F)(F)F)cc(C(F)(F)F)c3)n2)CC1 [Compound 87, (Z)-3-(3-(3,5-bis(trifluoromethyl)phenyl)-1H-1,2,4-triazol-1-yl)-N-(4-methoxy-6-oxo-3,6-dihydropyridin-1(2H)-yl)acrylamide]",< 1,0.041,0.041,20,0.021,0.021,4080,389,6.56,0.5,2.7,–,–,–,–,–,–,–,–,–
"CN1CCC2(CC1)CC(=O)N(NC(=O)/C=C\n1cnc(-c3cc(C(F)(F)F)cc(C(F)(F)F)c3)n1)C2 [Compound 23, (Z)-3-(3-(3,5-bis(trifluoromethyl)phenyl)-1H-1,2,4-triazol-1-yl)-N-(8-methyl-3-oxo-2,8-diazaspiro[4.5]decan-2-yl)acrylamide]",< 1,0.664,–,–,0.407,–,–,–,–,–,–,159,40.3,–,–,–,–,–,–,–
"O=C(/C=C\n1cnc(-c2cc(C(F)(F)F)cc(C(F)(F)F)c2)n1)N1CCC(=O)N1CC1CC1 [Compound 72, (Z)-1-(3-(3-(3,5-bis(trifluoromethyl)phenyl)-1H-1,2,4-triazol-1-yl)acryloyl)-2-(cyclopropylmethyl)pyrazolidin-3-one]",< 1,0.137,–,–,0.119,–,–,–,–,–,–,27.4,20.9,–,–,–,–,–,–,–
"O=C(/C=C\n1cnc(-c2cc(C(F)(F)F)cc(C(F)(F)F)c2)n1)N1CCCN1 [Compound 90, (Z)-3-(3-(3,5-bis(trifluoromethyl)phenyl)-1H-1,2,4-triazol-1-yl)-1-(pyrazolidin-1-yl)prop-2-en-1-one]",–,–,–,–,–,–,–,–,–,–,–,349,156,–,–,–,–,–,–,–
"CC1=C(C)C(=O)N(NC(=O)/C=C\n2cnc(-c3cc(C(F)(F)F)cc(C(F)(F)F)c3)n2)C1 [Compound 5, (Z)-3-(3-(3,5-bis(trifluoromethyl)phenyl)-1H-1,2,4-triazol-1-yl)-N-(3,4-dimethyl-2-oxo-2,5-dihydro-1H-pyrrol-1-yl)acrylamide]",< 1,0.202,–,–,0.955,–,3690,674,4.34,1,4.53,–,–,–,–,–,–,–,–,–
"O=C(/C=C\n1cnc(-c2cc(C(F)(F)F)cc(C(F)(F)F)c2)n1)NN1C(=O)[C@@H]2CC[C@H]1C2 [Compound 33, (Z)-3-(3-(3,5-bis(trifluoromethyl)phenyl)-1H-1,2,4-triazol-1-yl)-N-((1S,4R)-3-oxo-2-azabicyclo[2.2.1]heptan-2-yl)acrylamide]",< 1,0.156,–,–,0.165,–,5770,697,6.76,1,4.36,–,–,–,–,–,–,–,–,–
"O=C(/C=C\n1cnc(-c2cc(C(F)(F)F)cc(C(F)(F)F)c2)n1)NN1CCCC1=O [Compound 2, (Z)-3-(3-(3,5-bis(trifluoromethyl)phenyl)-1H-1,2,4-triazol-1-yl)-N-(2-oxopyrrolidin-1-yl)acrylamide]",< 1,0.269,–,–,0.024,–,2660,502,6.59,0.5,4.58,14.6,11.3,–,–,–,–,–,–,–
"CN1C(=O)CCN1C(=O)/C=C\n1cnc(-c2cc(C(F)(F)F)cc(C(F)(F)F)c2)n1 [Compound 62, (Z)-1-(3-(3-(3,5-bis(trifluoromethyl)phenyl)-1H-1,2,4-triazol-1-yl)acryloyl)-2-methylpyrazolidin-3-one]",< 1,0.124,–,–,0.186,–,–,–,–,–,–,220,320,65.32 ± 6.61,20.55,77.35,152.32 ± 24.78,21.08,2.33*,35.10
"O=C(/C=C\n1cnc(-c2cc(C(F)(F)F)cc(C(F)(F)F)c2)n1)NNc1cnccn1 [KPT-330, Selinexor, reference compound]",–,0.705,0.705,–,0.458,0.455,2470,325,6.94,0.5,2.66,6.52,6.25,65.06 ± 6.45,19.97,77.55,151.31 ± 23.90,19.97,–,35.02
"COCCN1C(=O)CCN1C(=O)/C=C\n1cnc(-c2cc(C(F)(F)F)cc(C(F)(F)F)c2)n1 [Compound 71, (Z)-1-(3-(3-(3,5-bis(trifluoromethyl)phenyl)-1H-1,2,4-triazol-1-yl)acryloyl)-2-(2-methoxyethyl)pyrazolidin-3-one]",< 1,0.586,–,–,0.245,–,–,–,–,–,–,147,229,–,–,–,–,–,–,–
"CC1CCN(NC(=O)/C=C\n2cnc(-c3cc(C(F)(F)F)cc(C(F)(F)F)c3)n2)C1=O (centres unmarked) [Compound 9, (Z)-3-(3-(3,5-bis(trifluoromethyl)phenyl)-1H-1,2,4-triazol-1-yl)-N-(3-methyl-2-oxopyrrolidin-1-yl)acrylamide]",< 1,0.334,–,–,0.504,–,–,–,–,–,–,–,–,–,–,–,–,–,–,–
